Results taken from patent US9777003B2, “Tricyclic heterocycles as bet protein inhibitors” (Incyte Corporation, priority 2013, dated 2017).
Counter-ions that a name gives are not always drawn.

Tests used:
BRD4-BD1 = BRD4-BD1 (Homo sapiens (Human), UniProt O60885); assay: BRD4 AlphaScreen assay, BRD4-BD1; assay type: binding; conditions: biotin-labeled tetra-acetylated histone H4 peptide, 75 min, room temperature, read-out: BRD4 BD-1 enzyme IC50
Description: (§1) BRD4-BD1 and BRD4-BD2 assays were conducted in white 384-well polystyrene plate in a final volume of 20 μL for BD1 and 40 μL for BD2. Inhibitors were first serially diluted in DMSO and added to the plate wells before the addition of other reaction components. The final concentration of DMSO in the assay was 1.25% (BD1) and 0.83% (BD2). The assays were carried out at room temperature for 75 min. in the assay buffer (50 mM HEPES, pH 7.4, 100 mM NaCl, 0.05% CHAPS, 0.01% BSA), containing 50 nM Biotin-labeled tetra-acetylated histone H4 peptide (H4Ac4), 3.8 nM (BRD4-BD1, BPS Bioscience #31040) or 20 nM (BRD4-BD2, BPS Bioscience #31041). The reaction followed by the addition of 20 μL of assay buffer supplemented with Streptavidin donor beads (PerkinElmer 6760002) and GSH Acceptor beads (PerkinElmer-AL109C) at 4 μg/mL under reduced light. After plate sealing, the plate was incubated in the dark at room temperature for 75 min. before reading on a PHERAstar FS plate reader (BMG Labtech). IC50 determination was performed by fitting the curve of percent control activity versus the log of the inhibitor concentration using the GraphPad Prism 5.0 software.

BRD4-BD2 = BRD4-BD2 (Homo sapiens (Human), UniProt O60885); assay: BRD4 AlphaScreen assay, BRD4-BD2; assay type: binding; conditions: biotin-labeled tetra-acetylated histone H4 peptide, 75 min, room temperature, read-out: BRD4 BD-2 enzyme IC50
Description: as §1

Row | Structure (SMILES) | IC50 (BRD4-BD1) [nM] | IC50 (BRD4-BD2) [nM]
1 | CNc1cc2c(cc(C)n2Cc2ccccc2)n2c(C)nnc12 [Example 261, 6-Benzyl-N,1,7-trimethyl-6H-pyrrolo[2,3-e][1,2,4]triazolo[4,3-a]pyridin-4-amine] | ≤ 100 | ≤ 100
2 | Cc1nnc2ccc3c(cc(-c4ccn(CCO)n4)n3Cc3cccc(Cl)c3)n12 [Example 178, 2-{3-[6-(3-Chlorobenzyl)-1-methyl-6H-pyrrolo[2,3-e][1,2,4]triazolo[4,3-a]pyridin-7-yl]-1H-pyrazol-1-yl}ethanol Trifluoroacetate Salt] | ≤ 100 | ≤ 100
3 | Cc1cc2c(cc(N[C@H]3CCOC3)c3nnc(C)n32)n1Cc1ccccc1 [Example 148, 6-benzyl-1,7-dimethyl-N-[(3S)-tetrahydrofuran-3-yl]-6H-pyrrolo[2,3-e][1,2,4]triazolo[4,3-a]pyridin-4-amine] | ≤ 100 | ≤ 100
4 | Cc1cc2c(ccc3nnc(C)n32)n1Cc1ccccc1F [Example 14, 6-(2-fluorobenzyl)-1,7-dimethyl-6H-pyrrolo[2,3-e][1,2,4]triazolo[4,3-a]pyridine] | ≤ 100 | ≤ 100
5 | Cc1nc2c(ccc3nnc(C)n32)n1Cc1ccccc1 [Example 55, 3-benzyl-2,8-dimethyl-3H-imidazo[4,5-e][1,2,4]triazolo[4,3-a]pyridine] | 100 to 1000 | ≤ 100
6 | CCn1cnc(-c2cc3c(ccc4nnc(C)n43)n2Cc2ccccc2)c1 [Example 80, 6-benzyl-7-(1-ethyl-1H-imidazol-4-yl)-1-methyl-6H-pyrrolo[2,3-e][1,2,4]triazolo[4,3-a]pyridine] | ≤ 100 | ≤ 100
7 | Cc1nnc2ccc3c(cc(-c4ccn(C5CN(S(=O)(=O)C6CC6)C5)n4)n3Cc3cccc(Cl)c3)n12 [Example 165, 6-(3-Chlorobenzyl)-7-{1-[1-(cyclopropylsulfonyl)azetidin-3-yl]-1H-pyrazol-3-yl}-1-methyl-6H-pyrrolo[2,3-e][1,2,4]triazolo[4,3-a]pyridine Trifluoroacetate Salt] | ≤ 100 | ≤ 100
8 | CCNC(=O)c1cc2c(ccc3nnc(C)n32)n1Cc1cc(Cl)cc(CN2CCCC2)c1 [Example 133, 6-[3-Chloro-5-(pyrrolidin-1-ylmethyl)benzyl]-N-ethyl-1-methyl-6H-pyrrolo[2,3-e][1,2,4]triazolo[4,3-a]pyridine-7-carboxamide bis(trifluoroacetate) Salt] | ≤ 100 | ≤ 100
9 | Cc1nnc2ccc3c(cc(-c4ccn(C5CN(C(=O)C6CC6)C5)n4)n3Cc3cccc(Cl)c3)n12 [Example 164, 6-(3-Chlorobenzyl)-7-{1-[1-(cyclopropylcarbonyl)azetidin-3-yl]-1H-pyrazol-3-yl}-1-methyl-6H-pyrrolo[2,3-e][1,2,4]triazolo[4,3-a]pyridine Trifluoroacetate Salt] | ≤ 100 | ≤ 100
10 | Cc1cc2c(ccc3nnc(C)n32)n1Cc1cccc(CN(C)C)c1 [Example 40, 1-{3-[(1,7-dimethyl-6H-pyrrolo[2,3-e][1,2,4]triazolo[4,3-a]pyridin-6-yl)methyl]phenyl}-N,N-dimethylmethanamine] | ≤ 100 | ≤ 100
11 | CCN1CC(n2ccc(-c3cc4c(ccc5nnc(C)n54)n3Cc3cccc(Cl)c3)n2)C1 [Example 160, 6-(3-Chlorobenzyl)-7-[1-(1-ethylazetidin-3-yl)-1H-pyrazol-3-yl]-1-methyl-6H-pyrrolo[2,3-e][1,2,4]triazolo[4,3-a]pyridine bis(trifluoroacetate) Salt] | ≤ 100 | ≤ 100
12 | Cc1cc2c(cc(N[C@@H]3CCOC3)c3nnc(C)n32)n1Cc1ccccc1 [Example 147, 6-benzyl-1,7-dimethyl-N-[(3R)-tetrahydrofuran-3-yl]-6H-pyrrolo[2,3-e][1,2,4]triazolo[4,3-a]pyridin-4-amine] | ≤ 100 | ≤ 100
13 | Cc1cc2c(cc(NCCN)c3nnc(C)n32)n1Cc1ccccc1 [Example 258, N1-(6-benzyl-1,7-dimethyl-6H-pyrrolo[2,3-e][1,2,4]triazolo[4,3-a]pyridin-4-yl)ethane-1,2-diamine] | ≤ 100 | ≤ 100
14 | CCn1ccc(-c2cc3c(ccc4nnc(C)n43)n2Cc2cc(Cl)cc(CN3CCCC3)c2)n1 [Example 189, 6-(3-Chloro-5-(pyrrolidin-1-ylmethyl)benzyl)-7-(1-ethyl-1H-pyrazol-3-yl)-1-methyl-6H-pyrrolo[2,3-e][1,2,4]triazolo[4,3-a]pyridine tris(trifluoroacetate) Salt] | ≤ 100 | ≤ 100
15 | CN[C@H]1CC[C@H](Nc2cc3c(cc(C)n3Cc3ccccc3)n3c(C)nnc23)CC1 [Example 219, trans-N-(6-Benzyl-1,7-dimethyl-6H-pyrrolo[2,3-e][1,2,4]triazolo[4,3-a]pyridin-4-yl)-N′-methylcyclohexane-1,4-diamine] | ≤ 100 | ≤ 100
16 | Cc1nnc2ccc3c(cc(C(=O)NCC(C)C)n3Cc3ccccc3)n12 [Example 125, 6-Benzyl-N-isobutyl-1-methyl-6H-pyrrolo[2,3-e][1,2,4]triazolo[4,3-a]pyridine-7-carboxamide Trifluoroacetate] | 100 to 1000 | 100 to 1000
17 | Cc1nnc2ccc3c(cc(C(N)=O)n3Cc3ccccc3)n12 [Example 58, 6-benzyl-1-methyl-6H-pyrrolo[2,3-e][1,2,4]triazolo[4,3-a]pyridine-7-carboxamide] | ≤ 100 | ≤ 100
18 | CCNC(=O)c1cccc(Cn2c(C)cc3c2ccc2nnc(C)n23)c1 [Example 33, 3-[(1,7-dimethyl-6H-pyrrolo[2,3-e][1,2,4]triazolo[4,3-a]pyridin-6-yl)methyl]-N-ethylbenzamide Trifluoroacetate Salt] | 100 to 1000 | ≤ 100
19 | Cc1nnc2ccc3c(cc(-c4ccn(CCC(=O)NC5COC5)n4)n3Cc3cccc(Cl)c3)n12 [Example 168, 3-{3-[6-(3-Chlorobenzyl)-1-methyl-6H-pyrrolo[2,3-e][1,2,4]triazolo[4,3-a]pyridin-7-yl]-1H-pyrazol-1-yl}-N-oxetan-3-ylpropanamide Trifluoroacetate Salt] | ≤ 100 | ≤ 100
20 | Cc1nnc2ccc3c(cc(-c4ccn(CCC#N)n4)n3Cc3ccccc3)n12 [Example 78, 3-[3-(6-benzyl-1-methyl-6H-pyrrolo[2,3-e][1,2,4]triazolo[4,3-a]pyridin-7-yl)-1H-pyrazol-1-yl]propanenitrile] | ≤ 100 | ≤ 100
21 | Cc1cc2c(cc(NC(N)=O)c3nnc(C)n32)n1Cc1ccc(F)cc1 [Example 239, 1-(6-(4-Fluorobenzyl)-1,7-dimethyl-6H-pyrrolo[2,3-e][1,2,4]triazolo[4,3-a]pyridin-4-yl)urea] | ≤ 100 | ≤ 100
22 | Cc1cc2c(ccc3nnc(C)n32)n1Cc1ccccc1 [Example 2, 6-benzyl-1,7-dimethyl-6H-pyrrolo[2,3-e][1,2,4]triazolo[4,3-a]pyridine] | ≤ 100 | ≤ 100
23 | Cc1cc2c(ccc3nnc(C)n32)n1Cc1ccc2ccccc2n1 [Example 21, 1,7-dimethyl-6-(quinolin-2-ylmethyl)-6H-pyrrolo[2,3-e][1,2,4]triazolo[4,3-a]pyridine] | 100 to 1000 | ≤ 100
24 | Cc1nnc2ccc3c(cc(C(F)(F)F)n3Cc3ccccc3)n12 [Example 138, 6-Benzyl-1-methyl-7-(trifluoromethyl)-6H-pyrrolo[2,3-e][1,2,4]triazolo[4,3-a]pyridine Trifluoroacetate Salt] | 100 to 1000 | 100 to 1000
